According to the supplement of paper PMC13380429:
Counter-ions that a name gives are not always drawn.

How the values were obtained:
Settings in all cases: 72 h
Caco-2 [1] = experiment: cell viability relative to DMSO; higher = less toxic
Calu-3 [2] = experiment: as above
HepG2 [3] = experiment: as above
U2OS [4] = experiment: as above
Caco-2 [5] = experiment: relative viability EC50 (midpoint between 100% and the lowest measured viability); higher = less toxic
Calu-3 [6] = experiment: as above
HepG2 [7] = experiment: as above
U2OS [8] = experiment: as above
Caco-2 [9] = experiment: drug sensitivity score (DSS) for viability; higher = more toxic; extreme values may be limits of the assay
Calu-3 [10] = experiment: as above
HepG2 [11] = experiment: as above
U2OS [12] = experiment: as above
Vero E6 [13] = experiment: cell viability relative to DMSO; higher = less toxic
Vero E6 [14] = experiment: relative viability EC50 (midpoint between 100% and the lowest measured viability); higher = less toxic
Vero E6 [15] = experiment: drug sensitivity score (DSS) for viability; higher = more toxic; extreme values may be limits of the assay

SMILES	cell viability (Caco-2 [1]; 1 nM) [%]	cell viability (Caco-2 [1]; 10 nM) [%]	cell viability (Caco-2 [1]; 100 nM) [%]	cell viability (Caco-2 [1]; 1000 nM) [%]	cell viability (Caco-2 [1]; 10000 nM) [%]	cell viability (Calu-3 [2]; 1 nM) [%]	cell viability (Calu-3 [2]; 10 nM) [%]	cell viability (Calu-3 [2]; 100 nM) [%]	cell viability (Calu-3 [2]; 1000 nM) [%]	cell viability (Calu-3 [2]; 10000 nM) [%]	cell viability (HepG2 [3]; 1 nM) [%]	cell viability (HepG2 [3]; 10 nM) [%]	cell viability (HepG2 [3]; 100 nM) [%]	cell viability (HepG2 [3]; 1000 nM) [%]	cell viability (HepG2 [3]; 10000 nM) [%]	cell viability (U2OS [4]; 1 nM) [%]	cell viability (U2OS [4]; 10 nM) [%]	cell viability (U2OS [4]; 100 nM) [%]	cell viability (U2OS [4]; 1000 nM) [%]	cell viability (U2OS [4]; 10000 nM) [%]	relative viability EC50 (Caco-2 [5]) [µM]	relative viability EC50 (Calu-3 [6]) [µM]	relative viability EC50 (HepG2 [7]) [µM]	relative viability EC50 (U2OS [8]) [µM]	drug sensitivity score (Caco-2 [9])	drug sensitivity score (Calu-3 [10])	drug sensitivity score (HepG2 [11])	drug sensitivity score (U2OS [12])	cell viability (Vero E6 [13]; 1 nM) [%]	cell viability (Vero E6 [13]; 10 nM) [%]	cell viability (Vero E6 [13]; 100 nM) [%]	cell viability (Vero E6 [13]; 1000 nM) [%]	cell viability (Vero E6 [13]; 10000 nM) [%]	relative viability EC50 (Vero E6 [14]) [µM]	drug sensitivity score (Vero E6 [15])
N=C(N)Nc1ccc(Cl)cc1 [4-chlorophenylguanidine]	103	100	97	95.1	95.6	93	89.4	94.6	91.7	102	99.6	99.2	107	115	93.2	102	95.9	99.7	96.5	101	> 10	> 10	> 10	> 10	0	0	0	0							
Nc1nc(NC2CC2)c2ncn([C@H]3C=C[C@@H](CO)C3)c2n1 [ABACAVIR SULFATE]	102	104	94.3	98.4	95.1	89.4	96.3	97.7	100	97.1	101	95.2	97.7	90.3	96	99.9	102	97.1	106	99.7	> 10	> 10	> 10	> 10	0	0	0	0							
Oc1ccc(Nc2nc(-c3ccc(Cl)cc3)cs2)cc1 [SKI-II]	100	98.1	104	99.9	90	103	96.2	97.8	90.5	85.6	90.8	68.7	106	81.3	98						> 10	> 10	> 10		0	0.5	0		102	104	99.2	107	97.5	> 10	0
CC(=O)Nc1ccc(C(=O)O)cc1 [acedoben]	88.6	100	95.6	86.4	109	101	99.4	96.7	100	108	114	110	107	96.8	104	97.4	104	97.3	98	102	> 10	> 10	> 10	> 10	0	0	0	0							
C=CC[N@@+]12CC[C@@]34c5ccccc5N5/C=C6/[C@H]7C[C@H]8[C@@]9(CC[N@@+]8(CC=C)C/C7=C/CO)c7ccccc7N(/C=C(/[C@@H](C[C@@H]31)/C(=C\CO)C2)[C@H]54)[C@@H]69 [alcuronium]	94.9	99.9	99.4	102	107	97.8	103	91.2	90.8	87.8	106	107	98.2	102	103	102	99	101	99.7	103	> 10	> 10	> 10	> 10	0	1	0	0							
O=C1C2CC=CCC2C(=O)N1SC(Cl)(Cl)Cl (stereo not drawn) [captan]	102	102	101	98.6	88.9	99.9	99.6	102	106	99.4	101	93.1	85.8	86.3	82.1	105	100	105	96.1	92.1	> 10	> 10	> 10	> 10	0	0	3.1	0							
C[C@@H]1CC[C@@]2(OC1)O[C@H]1C[C@H]3[C@@H]4CC=C5C[C@@H](O[C@@H]6O[C@H](CO)[C@@H](O[C@@H]7O[C@@H](C)[C@H](O)[C@@H](O)[C@H]7O)[C@H](O)[C@H]6O[C@@H]6O[C@@H](C)[C@H](O)[C@@H](O)[C@H]6O)CC[C@]5(C)[C@H]4CC[C@]3(C)[C@H]1[C@@H]2C [dioscin]	97.9	92.6	95.2	75.9	2.3	96.7	89.7	97.9	79.3	2.9	96.8	97.5	90.1	76.2	-0.2						1.56	1.68	1.59		9.1	8.7	9.2		97	103	98.4	71.1	0.9	1.42	9.7
C[C@]12CC[C@@H]3c4ccc(O)cc4CC[C@H]3[C@@H]1CC[C@@H]2OC(=O)CCC1CCCC1 [estradiol-cypionate]	99.9	106	85.4	97.2	90	82	90.4	103	93	102	103	96.5	105	95.8	98.8	99.6	104	99.2	100	96.7	> 10	> 10	> 10	> 10	0	0	0	0							
CCCCCN(C)CCC(O)(P(=O)(O)O)P(=O)(O)O [ibandronate]	97	111	106	106	94.5	96.4	111	96	106	107	111	98	112	106	117						> 10	> 10	> 10		0	0	0								
CN1C(C)(C)CCCC1(C)C [pempidine]	102	89.1	95.1	99.5	109	114	105	98.3	107	110	96	103	98.1	105	84.7						> 10	> 10	> 10		0	0	0.1		97.4	100	95.1	95.7	94.4	> 10	0
CCn1cc(C(=O)O)c(=O)c2cnc(N3CCCC3)nc21 [piromidic-acid]	103	90.3	97.6	97.1	93.7	101	74.8	95.1	87	98.6	93	104	96.9	103	99.3	99.8	98	100	99.1	102	> 10	> 10	> 10	> 10	0	0	0	0							
CCC(NC(C)C)C(O)c1ccc(O)c2[nH]c(=O)ccc12 (stereo not drawn) [procaterol]	84.2	107	89.9	99.6	92.8	92.1	104	105	110	95.9	110	93.9	103	97.4	95.4	101	105	96	104	101	> 10	> 10	> 10	> 10	0	0	0	0							
O=C1NC(=O)[C@@H](c2cn3c4c(cccc24)CCC3)[C@@H]1c1c[nH]c2ccccc12 [tivantinib]	107	94.3	103	60.2	44.7	98.3	94.1	98.9	72.6	59.6	108	96.5	99.5	39.5	41.5	102	102	95.1	51.9	26.2	0.688		0.311	0.648	7.7	5.3	11.1	10.1	97.3	99.8	92.8	36.5	28.2	0.331	12.7
